# Reference: patent US20150140089A1 (MetronomX, priority 2012, published 2015)
# Where “and” joins values, the source holds several entries; their conditions need not be identical. Identical values can stand only once. Like-named read-outs stand apart in the source and are kept apart here.
# What was measured:
# [1] = 2% w/v SDS in water
# [2] = In vitro release (dissolution) using 2% w/v SDS in deionized water; type: physicochemical
# Protocol: (§1) At specified time intervals (0.5, 1, 2, 4, 8, 10, and 24 h), 2 ml of sample was collected from each basket and replaced with the same volume of buffer.
# Dissolution of each formulation was performed in duplicate.
# [3] = blood level of active compound; cited from earlier work
# [4] = In vitro release (dissolution), USP apparatus II, 5% SDS in 0.1N HCl; type: physicochemical; settings: 0.1N HCl with 5% SDS; in 24 hr
# Protocol: as §1
structure (smiles),measurement,setting,value
"CC1CS(=O)(=O)CCN1/N=C/c1ccc([N+](=O)[O-])o1 (stereo not drawn) [Nifurtimox, 3-methyl-4-(5′-nitrofurfurylidene-amino)-tetrahydro-4H-1,4-thiazine-1,1-dioxide]",Estimated Amount of Nifurtimox,"[1]; 25 °C, 0 hr",344.22 µg/mL
same,Estimated Amount of Nifurtimox,"[1]; 25 °C, 4 hr",339.96 µg/mL
same,Estimated Amount of Nifurtimox,"[1]; 25 °C, 8 hr",345.38 µg/mL
same,Estimated Amount of Nifurtimox,"[1]; 25 °C, 12 hr",346.21 µg/mL
same,Estimated Amount of Nifurtimox,"[1]; 25 °C, 16 hr",346.94 µg/mL
same,Estimated Amount of Nifurtimox,"[1]; 25 °C, 20 hr",344.92 µg/mL
same,Estimated Amount of Nifurtimox,"[1]; 25 °C, 24 hr",341.80 µg/mL
same,Estimated Amount of Nifurtimox,"[1]; 37 °C, 1 hr",338.78 µg/mL
same,Estimated Amount of Nifurtimox,"[1]; 37 °C, 2 hr",339.74 µg/mL
same,Estimated Amount of Nifurtimox,"[1]; 37 °C, 3 hr",338.78 µg/mL
same,Estimated Amount of Nifurtimox,"[1]; 37 °C, 24 hr",343.76 µg/mL and 339.56 µg/mL
same,instability of Nifurtimox during dissolution (in words),[2],no significant instability
same,half-life,[3],2.95 ± 1.19 h
same,time to peak,[3],1 to 2 h
same,Nifurtimox degradation in dissolution samples,[4],about 25%
